Source: ChEMBL document CHEMBL5465560, “Selectivity Literature for EUbOPEN Chemogenomic Library” (2024)
pIC50: −log10 of the molar value.

Legend:
[1] = target: Phosphorylase b kinase gamma catalytic chain, skeletal muscle/heart isoform (Homo sapiens) (UniProt Q16816); assay: Selectivity interaction (KinomeScan (DiscoverX)) EUB0000595a PHKG1; conditions: at 10 µM
[2] = target: Serine/threonine-protein kinase MRCK beta (Homo sapiens) (UniProt Q9Y5S2); assay: Selectivity interaction (KinomeScan (DiscoverX)) EUB0000666a CDC42BPB; conditions: at 10 µM
Chain of Serine/threonine-protein kinase MRCK beta (Homo sapiens) (Q9Y5S2 whole entry): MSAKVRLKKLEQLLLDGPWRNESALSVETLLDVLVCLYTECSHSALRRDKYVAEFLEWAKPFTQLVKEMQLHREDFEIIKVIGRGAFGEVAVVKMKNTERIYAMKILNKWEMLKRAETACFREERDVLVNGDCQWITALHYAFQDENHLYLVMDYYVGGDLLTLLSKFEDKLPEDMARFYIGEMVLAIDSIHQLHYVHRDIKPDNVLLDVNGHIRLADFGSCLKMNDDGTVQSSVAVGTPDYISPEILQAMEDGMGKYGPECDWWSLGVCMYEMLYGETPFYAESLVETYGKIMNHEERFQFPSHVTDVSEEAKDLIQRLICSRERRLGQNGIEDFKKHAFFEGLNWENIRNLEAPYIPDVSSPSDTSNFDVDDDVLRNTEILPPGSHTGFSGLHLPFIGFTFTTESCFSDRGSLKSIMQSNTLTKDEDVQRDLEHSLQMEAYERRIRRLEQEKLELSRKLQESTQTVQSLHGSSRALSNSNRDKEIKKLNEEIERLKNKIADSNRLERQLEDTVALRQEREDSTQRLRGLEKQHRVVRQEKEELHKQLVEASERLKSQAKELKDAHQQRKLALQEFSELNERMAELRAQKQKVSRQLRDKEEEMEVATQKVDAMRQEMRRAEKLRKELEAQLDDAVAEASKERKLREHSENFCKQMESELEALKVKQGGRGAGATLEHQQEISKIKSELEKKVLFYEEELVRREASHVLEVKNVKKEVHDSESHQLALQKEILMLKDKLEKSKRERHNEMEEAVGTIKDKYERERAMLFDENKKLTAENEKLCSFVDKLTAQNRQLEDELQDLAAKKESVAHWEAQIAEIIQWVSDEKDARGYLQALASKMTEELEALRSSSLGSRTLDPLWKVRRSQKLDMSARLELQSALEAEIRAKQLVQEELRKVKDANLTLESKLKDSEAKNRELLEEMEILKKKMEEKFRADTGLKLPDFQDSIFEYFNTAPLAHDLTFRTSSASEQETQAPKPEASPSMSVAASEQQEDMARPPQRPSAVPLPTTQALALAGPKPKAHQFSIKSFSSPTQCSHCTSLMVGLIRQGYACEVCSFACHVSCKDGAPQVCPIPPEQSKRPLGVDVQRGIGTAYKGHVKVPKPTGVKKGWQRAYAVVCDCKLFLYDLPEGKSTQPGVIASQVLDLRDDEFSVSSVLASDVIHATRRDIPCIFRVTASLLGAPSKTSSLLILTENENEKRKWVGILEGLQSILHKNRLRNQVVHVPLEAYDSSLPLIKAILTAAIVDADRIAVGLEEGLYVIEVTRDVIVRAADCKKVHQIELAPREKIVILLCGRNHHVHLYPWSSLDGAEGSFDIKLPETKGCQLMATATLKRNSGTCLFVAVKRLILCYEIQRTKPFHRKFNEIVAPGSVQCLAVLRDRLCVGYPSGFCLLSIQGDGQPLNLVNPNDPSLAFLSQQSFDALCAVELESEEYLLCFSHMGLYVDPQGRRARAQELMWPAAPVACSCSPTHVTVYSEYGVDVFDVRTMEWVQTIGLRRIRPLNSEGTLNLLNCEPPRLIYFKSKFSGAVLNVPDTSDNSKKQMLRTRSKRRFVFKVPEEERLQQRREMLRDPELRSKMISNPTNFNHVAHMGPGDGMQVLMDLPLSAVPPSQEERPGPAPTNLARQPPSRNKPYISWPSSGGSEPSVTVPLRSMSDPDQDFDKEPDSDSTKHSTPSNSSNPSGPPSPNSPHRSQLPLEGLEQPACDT

[3] = target: Cyclin-dependent kinase 2/cyclin E (Homo sapiens) (UniProt P24864+P24941+O96020); assay: Selectivity interaction (Upstate Kinase Profiler service (Millipore)) EUB0000056c CDK2; assay type: protein-complex assay; conditions: at 1 µM
[4] = target: T1, Ephrin type-A receptor 3 (Homo sapiens) (UniProt P29320); assay: Selectivity interaction (ProQinase) EUB0000171b EPHA3
T1 sequence (whole entry): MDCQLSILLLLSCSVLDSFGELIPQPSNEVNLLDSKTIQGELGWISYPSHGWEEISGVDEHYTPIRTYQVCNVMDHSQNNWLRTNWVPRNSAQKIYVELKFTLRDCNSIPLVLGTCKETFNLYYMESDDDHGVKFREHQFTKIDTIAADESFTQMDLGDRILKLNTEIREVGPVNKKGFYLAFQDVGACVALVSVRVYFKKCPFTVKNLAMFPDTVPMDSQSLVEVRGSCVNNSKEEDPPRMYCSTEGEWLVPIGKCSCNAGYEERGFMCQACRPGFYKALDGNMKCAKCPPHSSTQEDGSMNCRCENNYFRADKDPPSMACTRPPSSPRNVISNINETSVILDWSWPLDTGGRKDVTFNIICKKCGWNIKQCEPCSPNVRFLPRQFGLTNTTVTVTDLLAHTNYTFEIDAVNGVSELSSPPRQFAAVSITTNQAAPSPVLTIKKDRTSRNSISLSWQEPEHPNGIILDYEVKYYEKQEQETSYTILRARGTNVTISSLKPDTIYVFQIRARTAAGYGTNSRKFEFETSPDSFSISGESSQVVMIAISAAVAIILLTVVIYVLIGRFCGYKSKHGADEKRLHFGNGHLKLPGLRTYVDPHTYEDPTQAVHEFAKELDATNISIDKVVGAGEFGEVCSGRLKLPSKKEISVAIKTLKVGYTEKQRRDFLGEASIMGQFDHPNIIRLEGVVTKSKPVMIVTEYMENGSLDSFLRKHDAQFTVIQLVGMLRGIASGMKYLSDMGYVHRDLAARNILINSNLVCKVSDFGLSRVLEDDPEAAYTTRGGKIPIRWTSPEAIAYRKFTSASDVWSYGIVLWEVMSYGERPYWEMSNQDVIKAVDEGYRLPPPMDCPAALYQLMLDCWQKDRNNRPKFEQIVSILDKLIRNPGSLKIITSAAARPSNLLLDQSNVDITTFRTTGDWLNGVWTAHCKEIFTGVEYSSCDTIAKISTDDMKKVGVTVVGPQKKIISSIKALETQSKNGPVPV

[5] = target: Receptor tyrosine-protein kinase erbB-2 (Homo sapiens, UniProt P04626); assay: Selectivity interaction (Radiometric kinase assay (using 10 uM ATP)) EUB0000601a ERBB2
Chain of Receptor tyrosine-protein kinase erbB-2 (P04626 whole entry): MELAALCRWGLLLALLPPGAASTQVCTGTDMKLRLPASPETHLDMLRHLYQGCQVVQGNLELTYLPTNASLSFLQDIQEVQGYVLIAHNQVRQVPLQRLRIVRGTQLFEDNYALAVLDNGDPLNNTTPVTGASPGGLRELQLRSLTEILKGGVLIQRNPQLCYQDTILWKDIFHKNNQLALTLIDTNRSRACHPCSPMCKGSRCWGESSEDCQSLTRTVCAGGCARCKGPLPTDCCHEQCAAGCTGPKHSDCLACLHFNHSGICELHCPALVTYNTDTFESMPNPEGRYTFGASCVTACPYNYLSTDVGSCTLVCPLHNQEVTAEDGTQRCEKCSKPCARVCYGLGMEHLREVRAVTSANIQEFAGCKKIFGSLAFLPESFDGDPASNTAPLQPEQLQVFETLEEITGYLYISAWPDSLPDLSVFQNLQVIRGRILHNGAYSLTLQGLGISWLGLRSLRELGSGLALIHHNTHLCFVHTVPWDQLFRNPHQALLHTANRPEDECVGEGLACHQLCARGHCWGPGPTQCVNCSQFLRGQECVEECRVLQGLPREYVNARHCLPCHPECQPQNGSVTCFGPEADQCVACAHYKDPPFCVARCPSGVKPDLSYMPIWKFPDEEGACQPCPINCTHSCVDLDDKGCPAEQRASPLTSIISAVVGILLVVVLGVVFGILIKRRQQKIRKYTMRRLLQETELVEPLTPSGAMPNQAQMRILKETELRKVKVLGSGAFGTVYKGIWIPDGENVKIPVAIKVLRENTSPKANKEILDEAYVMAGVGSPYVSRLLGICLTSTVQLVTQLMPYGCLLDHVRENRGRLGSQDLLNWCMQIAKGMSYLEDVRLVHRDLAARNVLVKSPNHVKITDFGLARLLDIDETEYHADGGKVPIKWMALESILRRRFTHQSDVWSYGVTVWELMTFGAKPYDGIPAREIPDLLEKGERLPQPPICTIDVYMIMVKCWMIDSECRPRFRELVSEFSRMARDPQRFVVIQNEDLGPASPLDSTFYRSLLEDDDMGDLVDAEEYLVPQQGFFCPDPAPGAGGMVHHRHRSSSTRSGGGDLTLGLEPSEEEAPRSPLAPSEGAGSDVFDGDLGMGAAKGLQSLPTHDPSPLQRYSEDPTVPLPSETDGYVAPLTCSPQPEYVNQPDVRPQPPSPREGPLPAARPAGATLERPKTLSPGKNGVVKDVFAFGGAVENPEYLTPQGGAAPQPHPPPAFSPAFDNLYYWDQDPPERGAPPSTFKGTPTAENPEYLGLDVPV

[6] = target: T2, Muscle, skeletal receptor tyrosine-protein kinase (Homo sapiens) (UniProt O15146); conditions: at 10 µM
T2 sequence (whole entry): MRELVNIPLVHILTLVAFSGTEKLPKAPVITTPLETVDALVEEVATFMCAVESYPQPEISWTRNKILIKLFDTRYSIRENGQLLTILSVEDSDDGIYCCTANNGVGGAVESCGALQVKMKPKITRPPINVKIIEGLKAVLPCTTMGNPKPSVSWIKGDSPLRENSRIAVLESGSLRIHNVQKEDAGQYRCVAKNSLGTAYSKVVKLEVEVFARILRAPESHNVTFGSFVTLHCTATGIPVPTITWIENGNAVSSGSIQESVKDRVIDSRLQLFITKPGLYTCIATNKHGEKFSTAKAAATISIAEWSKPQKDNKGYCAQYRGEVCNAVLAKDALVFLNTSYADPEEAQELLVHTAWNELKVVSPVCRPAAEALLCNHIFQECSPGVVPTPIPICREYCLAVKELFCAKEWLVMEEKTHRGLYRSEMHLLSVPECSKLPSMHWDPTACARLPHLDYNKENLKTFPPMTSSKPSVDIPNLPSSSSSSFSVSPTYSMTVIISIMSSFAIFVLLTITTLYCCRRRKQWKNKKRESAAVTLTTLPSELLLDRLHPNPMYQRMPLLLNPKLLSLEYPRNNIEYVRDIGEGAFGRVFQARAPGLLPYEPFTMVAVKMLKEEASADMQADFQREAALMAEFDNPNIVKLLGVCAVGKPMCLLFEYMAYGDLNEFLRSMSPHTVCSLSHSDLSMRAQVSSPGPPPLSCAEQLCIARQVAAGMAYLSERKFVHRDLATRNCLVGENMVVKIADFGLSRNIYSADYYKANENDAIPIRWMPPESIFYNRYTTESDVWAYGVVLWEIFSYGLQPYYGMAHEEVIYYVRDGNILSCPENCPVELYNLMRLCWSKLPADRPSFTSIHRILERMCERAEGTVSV

Chain of Phosphorylase b kinase gamma catalytic chain, skeletal muscle/heart isoform (Homo sapiens) (Q16816 whole entry, looked up, canonical isoform): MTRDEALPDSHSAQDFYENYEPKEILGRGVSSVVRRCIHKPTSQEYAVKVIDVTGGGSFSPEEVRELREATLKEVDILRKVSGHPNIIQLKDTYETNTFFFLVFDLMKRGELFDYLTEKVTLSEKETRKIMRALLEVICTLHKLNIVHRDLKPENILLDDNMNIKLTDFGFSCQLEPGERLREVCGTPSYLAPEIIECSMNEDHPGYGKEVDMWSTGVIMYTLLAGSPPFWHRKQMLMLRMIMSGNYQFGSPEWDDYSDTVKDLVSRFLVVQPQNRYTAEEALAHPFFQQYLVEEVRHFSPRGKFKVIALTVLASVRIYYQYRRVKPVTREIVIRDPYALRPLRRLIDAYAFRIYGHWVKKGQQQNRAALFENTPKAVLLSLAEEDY

COCC(=O)NC/C=C/c1ccc2ncnc(Nc3ccc(Oc4ccc(C)nc4)c(C)c3)c2c1 [CP-724714]
% of control [1]: 100%

O=C(NOC[C@H](O)CO)c1ccc(F)c(F)c1Nc1ccc(I)cc1F
% of control [2]: 83%

Cc1ccc(-c2ccc3c(ccc4sc5c(c43)NC[C@@H](C)NC5=O)n2)cn1
% of inhibition [3]: 35%

C=CC(=O)Nc1cccc(C(=O)Nc2ccc(Nc3cc(-c4[nH]c(SC)nc4C)ccn3)cc2)c1
% of control ([4]; at 1 µM): 98% | % of control ([4]; at 5 µM): 89%

CCc1cc(Nc2nccc(-c3c(-c4ccc(OC)c(C(=O)Nc5c(F)cccc5F)c4)nc4ccccn34)n2)c(OC)cc1N1CCC(N2CCN(S(C)(=O)=O)CC2)CC1
pIC50 [5]: < 5.00

CCN(CC)CCCCNc1ncc2cc(-c3cc(OC)cc(OC)c3)c(NC(=O)NC(C)(C)C)nc2n1
% of control [6]: 100%
